Square brackets hold non-standard residues; d marks the D form. Ends that are not written are not given here. Peptide text beside a SMILES is read from it. * marks the point of attachment. Phe(3,4-F2) = N[C@@H](Cc1ccc(F)c(F)c1)C(=O)O; Phe(4-Br) = N[C@@H](Cc1ccc(Br)cc1)C(=O)O; Phe(4-NH2) = Nc1ccc(C[C@H](N)C(=O)O)cc1; Dab = NCC[C@H](N)C(=O)O; Nle = CCCC[CH](N)C(=O)O; Abu = CC[C@H](N)C(=O)O; Dap = NC[C@H](N)C(=O)O; X1 = OB(O)C(CCCBr)N*; Ahx = NCCCCCC(=O)O
Assays:
LNCaP cells = experiment: KLK activity and expression in LNCaP cells after AR signaling perturbation (streptavidin enrichment and immunoblotting); type: cell-based, human; settings: 10 nM DHT ± 10 μM Enz, 48 h
Description: (B) KLK activity and expression in the LNCaP cell line after treatment with 10 nM DHT ± 10 μM Enz. KLK activity was assessed by streptavidin enrichment of probe-labeled KLK molecules following treatment of conditioned media with 1 μM of either 31, 20, or 39 for 1 h.
To enable detection of each KLK in WT LNCaP cells, we incubated LNCaP conditioned media with 1 μM of each KLK ABP, enriched labeled proteins on streptavidin beads, and visualized activity levels by immunoblotting with the appropriate KLK antibody (see Figure S19 for workflow).
Routine cell culture conditions: Wild-type LNCaP cells (passage <15) were grown in RPMI
Androgen-signaling Experiments: LNCaP cells grown to 80 % confluency in a T175 plate
were incubated with phenol red-free RPMI media supplemented with 5 % charcoal-stripped
FBS for 24 h. After 24 h, the media was aspirated, and the cells were incubated with serum-
free RPMI media (0 % FBS and phenol red-free) supplemented with the appropriate treatment
condition (10 nM DHT or 10 nM DHT + 10 μM Enzalutamide) for a further 48 h. After 48 h the
media was collected, passed through a 0.2 μm syringe filter and stored at – 80 °C until needed.

KLK3 [1] = settings: cited from earlier work
KLK3 [2] = target: T1, KLK3 (Homo sapiens, UniProt P07288); experiment: Competitive ABPP against 3 in LNCaP conditioned media, densitometry; type: biochemical; settings: LNCaP CM, analogue 1 h then 20 μM 3 for 1 h; 16 analogues tested
T1 construct: endogenous in cells; host or cells: LNCaP cells treated with 10 nM DHT; conditioned medium
T1 sequence (P07288 25-261): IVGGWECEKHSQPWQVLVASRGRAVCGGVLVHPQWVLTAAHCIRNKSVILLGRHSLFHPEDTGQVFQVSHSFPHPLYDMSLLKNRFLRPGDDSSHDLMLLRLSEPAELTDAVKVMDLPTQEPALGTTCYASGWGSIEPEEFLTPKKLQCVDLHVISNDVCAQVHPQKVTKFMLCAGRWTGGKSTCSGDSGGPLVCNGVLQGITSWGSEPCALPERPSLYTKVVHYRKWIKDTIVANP
Description: Despite exquisite selectivity, maximal KLK3 labeling was achieved only after treatment with 20 μM 3 for 1 h. We therefore optimized probe potency by systematically modifying each amino acid side chain in the P1–P4 positions of a morpholine-capped peptidyl-DPP inhibitor scaffold and determined the potency of each analogue using competitive-ABPP against 3.[25],[26] LNCaP CM was first incubated with a peptidyl-DPP analogue for 1 h, followed by 1 h treatment with 20 μM 3 to assess the degree of KLK3 inhibition by densitometry (Figures S4 and S5 for fluorescent gels and Figure S6 for structures of each morpholine-capped peptidyl-DPP analogue). […] Second generation biotinylated 20 and fluorescent 21 ABPs (Figures 2G and S7) based on this scaffold retained exquisite selectivity for KLK3 in LNCaP CM, but in contrast to first-generation ABP 3 achieved maximum labeling at only 1 μM and readily detectable labeling down to 130 nM (Figures 2H and S7).
Figure S4: Typical gel obtained from assessment of the potency of P1 (top) and P2 (bottom) morpholine-DPP analogues against KLK3 using competitive ABPP. […] Residual KLK3 activity was calculated using densitometry (ImageQuant) by comparing to a DMSO treated sample. […]

KLK14 = target: T2, KLK14 (Homo sapiens, UniProt Q9P0G3); experiment: Determination of kinact/KI, fluorogenic substrate kinetic assay; type: biochemical; settings: for kinact/KI / Kinact/KI KLK14: mean ± SEM (N = 3); for selectivity (fold-change): KLK14 over KLK2
T2 construct: purchased R&D Systems
T2 sequence (Q9P0G3 25-251): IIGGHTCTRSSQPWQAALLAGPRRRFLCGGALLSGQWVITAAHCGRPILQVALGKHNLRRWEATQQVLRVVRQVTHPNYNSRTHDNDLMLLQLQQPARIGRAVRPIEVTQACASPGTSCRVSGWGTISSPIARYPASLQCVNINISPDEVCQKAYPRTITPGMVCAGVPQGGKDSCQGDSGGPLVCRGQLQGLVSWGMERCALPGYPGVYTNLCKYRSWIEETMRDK

KLK2 = target: T3, KLK2 (Homo sapiens, UniProt P20151); experiment: as above; type: biochemical; settings: for selectivity (fold-change): KLK2 over KLK14
T3 construct: purchased R&D Systems
T3 sequence (P20151 25-261): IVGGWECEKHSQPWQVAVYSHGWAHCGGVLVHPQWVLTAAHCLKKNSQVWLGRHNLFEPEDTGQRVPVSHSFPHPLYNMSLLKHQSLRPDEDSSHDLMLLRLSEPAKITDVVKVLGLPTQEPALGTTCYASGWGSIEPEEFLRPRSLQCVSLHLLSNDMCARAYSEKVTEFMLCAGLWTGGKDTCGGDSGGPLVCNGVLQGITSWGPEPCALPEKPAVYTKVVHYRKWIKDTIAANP
Text: 1.1 Chemicals and Reagents
All chemicals and reagents were purchased from commercial suppliers and used without further purification. Rink Amide resin (100-200 mesh) and 2-Chlorotrityl chloride resin (100-200 mesh, 1% DVB) were obtained from Merck. Natural Fmoc-amino acids were obtained from AGTC Bioproducts Ltd. Unnatural Fmoc-amino acids were obtained from Fluorochem, Alfa Aesar, VWR, Merck, Iris Biotech, Bachem or Sigma Aldrich. Culture media, fetal bovine serum, trypsin, antibiotics and chemicals required for differentiation of osteoprogenitor cells were obtained from Sigma Aldrich, Gibco or Invitrogen. Amicon 3 KDa Centrifugal filter units were obtained from Merck. Recombinant human KLK2 and KLK14 were obtained from R&D Systems and activated using the supplier’s protocol. All remaining chemical reagents were obtained from VWR, Sigma Aldrich or Merck. […]
Fluorescent plate-based enzymatic assays were carried out using an Envision 2104 Multilabel Plate Reader (PerkinElmer) operating in kinetic mode for a minimum of 20 min with excitation/emission […]
Specificity […]
was calculated by normalizing RFUs-1 to the highest value, which was set at 100 %.
Calculations were made in GraphPad Prism 5.
Determination of kcat/KM: The KLK2 substrate and KLK14 substrate were serially diluted in the appropriate KLK assay buffer and 25 μL was added to the wells of a 96-well plate. Next, 25 μL of KLK2 (1.5 nM) or KLK14 (75 pM) was added to each well containing the substrate and the enzyme-substrate reaction was monitored for at least 10 min. The linear portion of each progress curve was used to calculate relative fluorescence units per second (RFUs-1).
KM, kcat, and kcat/KM parameters were determined by nonlinear regression in GraphPad Prism 5 (GraphPad Software). Each experiment was repeated three times and the results are presented as an average ± SEM.
Determination of kinact/KI: Under pseudo-first order conditions, a fixed amount of KLK2 (1.5 nM) or KLK14 (37 pM) was incubated with peptidyl-DPP analogue at different concentrations in the presence of 5 µM of substrate. The pseudo first-order rate constant, kobs, was calculated for each probe concentration using non-linear regression analysis in GraphPad Prism 5. The obtained values were plotted against probe concentration to afford the apparent second order rate constant kinact(app)/KI. The absolute value of the second order rate constant was then obtained by adjusting for the substrate competition factor (1 + [S]/Km), where S is the concentration of substrate in the assay and KM is the Michaelis Menten constant for that substrate/enzyme reaction.
2.5 Cell Migration Assays
Cell migration: The assay was performed as per the manufacturer’s protocol (https://www.corning.com/catalog/cls/documents/protocols/an_Chemotaxis_protocol.pdf).
Briefly, LNCaP-WT, LNCaP-mK14 and LNCaP-K14 cells were grown to 80% confluency in RPMI media supplemented with 5 % FBS. The media was then aspirated, the cells were washed with 2 mL PBS (3*) and incubated with serum-free RPMI (without phenol red) supplemented with 10 nM DHT ± 100 ng/mL Dox for 24 h. Cells were trypsinized, washed twice with serum-free RPMI and resuspended in serum-free RPMI. 100,000 cells in 100 µL of serum-free RPMI was then added to the transwell inserts placed in a 24-well plate (Corning […]
Figure S15: KLK2 and KLK14 substrates. (A) Structures (B) Optimal assay conditions for […]
S19) inhibitors (C) Michaelis-Menten (K M) and rate (kcat) constants for KLK substrates

[3] = KLK2 probe optimization series, mean ± SEM (N = 3)
[4] = KLK14 probe optimization series
[5] = KLK14 probe optimization series, mean ± SEM (N = 3)

Row | Molecule | selectivity (fold-change) (KLK2; KLK2 probe optimization series) [fold] | Kinact/KI KLK14 (KLK14; KLK2 probe optimization series) [M^–1 s^–1] | Kinact/KI KLK2 (KLK2; [3]) [M^–1 s^–1] | Kinact/KI KLK14 (KLK14; [4]) [M^–1 s^–1] | also measured
1 | C[C@]12CCC(=O)C[C@@H]1CC[C@@H]1[C@@H]2CC[C@]2(C)[C@@H](O)CC[C@@H]12 [DHT, dihydrotestosterone] | – | – | – | – | KLK14 expression and activity (LNCaP cells): decreased; expression and activity of KLK2 and KLK3 (LNCaP cells): upregulated
2 | O=C(NC(c1ccc(O)cc1)P(=O)(Oc1ccccc1)Oc1ccccc1)OCc1ccccc1 (stereo not shown) [compound 1] | – | – | – | – | KLK3 inhibition (in words) (KLK3 [1]): modestly potent inhibitor of KLK3
3 | CCCCC(NC(=O)C(CCC(N)=O)NC(=O)C(CO)NC(=O)C(Cc1ccccc1)NC(=O)CCCCCN)C(=O)NC(CCCBr)B(O)O (stereo not shown) [compound 2] (H-[Ahx]FSQ[Nle]-X1; configuration not given here) | – | – | – | – | KLK3 inhibition (in words) (KLK3 [1]): potent and selective KLK3 inhibitor
4 | CCC[C@H](NC(=O)[C@H](CCC(N)=O)NC(=O)[C@H](CC(N)=O)NC(=O)CN1CCOCC1)C(=O)NC(c1ccc(C(N)=O)cc1)P(=O)(Oc1ccccc1)Oc1ccccc1 (stereo partly shown) [compound 15] | – | – | – | – | KLK3 inhibition by competitive ABPP (KLK3 [2]): potent KLK3 inhibitor
5 | CCC(NC(=O)CCCCCNC(=O)CCCCC1SCC2NC(=O)NC21)C(=O)NC(CCN)C(=O)NC(CC1CCCCC1)C(=O)NC(c1ccc(NC(=N)N)cc1)P(=O)(Oc1ccccc1)Oc1ccccc1 (stereo not drawn) [compound 22, Abu-Dab-Cha-Arg] | 6 | – | – | – | kinact/KI (KLK14; KLK2 probe optimization series): 511 ± 18 M⁻¹ s⁻¹; kinact/KI (KLK2; [3]): 3270 ± 39 M⁻¹ s⁻¹
6 | CC(OCc1ccccc1)C(NC(=O)CCCCCNC(=O)CCCCC1SCC2NC(=O)NC21)C(=O)NC(CCCCN)C(=O)NC(Cc1cn(Cc2ccccc2)cn1)C(=O)NC(c1ccc(NC(=N)N)cc1)P(=O)(Oc1ccccc1)Oc1ccccc1 (stereo not shown) [compound 32, Thr(Bz)-Lys-His(Bz)-Arg] | – | – | – | – | kinact/KI (KLK14; [4]): 523 ± 46 M⁻¹ s⁻¹
7 | CNC(=O)c1ccc(N2C(=S)N(c3ccc(C#N)c(C(F)(F)F)c3)C(=O)C2(C)C)cc1F [enzalutamide] | – | – | – | – | KLK14 expression and activity (LNCaP cells): restored; expression and activity of KLK2 and KLK3 (LNCaP cells): nullified
8 | Abu-Dab-4 Pal-Arg [compound 24] | 7 | 390 ± 15 | 2586 ± 54 | – | –
9 | Abu-Dab-Phe(3-CI)-Arg [compound 25] | 8 | 443 ± 16 | 3615 ± 107 | – | –
10 | Abu-Lys(TFA)-Tyr-Arg [compound 29] | – | – | 128 ± 19 | – | –
11 | Thr(Bz)-Dab-Abu-Arg [compound 36] | – | – | – | 18274 ± 680 | selectivity (fold-change) (KLK14; [4]): 11 fold; Kinact/KI KLK2 (KLK2; [5]): 1668 ± 60 M^–1 s^–1
12 | Thr(Bz)-Dap-Abu-Arg [compound 37] | – | – | – | 12636 ± 496 | selectivity (fold-change) (KLK14; [4]): 11 fold; Kinact/KI KLK2 (KLK2; [5]): 1162 ± 40 M^–1 s^–1
13 | Thr(Bz)-Lys-Abu-Arg [compound 35] | – | – | – | 5903 ± 254 | selectivity (fold-change) (KLK14; [4]): 25 fold; Kinact/KI KLK2 (KLK2; [5]): 231 ± 9 M^–1 s^–1
14 | Thr(Bz)-Lys-Hse(Bz)Arg [compound 33] | – | – | – | 1121 ± 54 | –
15 | Thr(Bz)-Lys-Phe(3,4-F2)-Arg [compound 34] | – | – | – | 602 ± 33 | –
16 | Tyr(Bz)-Dab-Abu-Arg [compound 41] | – | – | – | 8894 ± 132 | selectivity (fold-change) (KLK14; [4]): 91 fold; Kinact/KI KLK2 (KLK2; [5]): 98 ± 4 M^–1 s^–1
17 | [Abu][Dab]WR [compound 27] | 9 | 270 ± 5 | 2374 ± 37 | – | –
18 | [Abu][Dab]YR [compound 26] | 14 | 552 ± 11 | 7881 ± 249 | – | –
19 | [Abu][Dab][Phe(3,4-F2)]R [compound 28] | 2 | 2526 ± 173 | 5653 ± 265 | – | –
20 | [Abu][Dab][Phe(4-NH2)]R [compound 23] | 4 | 432 ± 15 | 1659 ± 35 | – | –
21 | [Dap][Dab]YR [compound 30] | – | 134 ± 6 | 1849 ± 53 | – | –
22 | [Phe(4-Br)][Dab][Abu]R [compound 40] | – | – | – | 20215 ± 570 | selectivity (fold-change) (KLK14; [4]): 57 fold; Kinact/KI KLK2 (KLK2; [5]): 350 ± 9 M^–1 s^–1

From publication PMC9282638, “A Suite of Activity-Based Probes To Dissect the KLK Activome in Drug-Resistant Prostate Cancer” (Journal of the American Chemical Society, 2021)
